# According to ChEMBL document CHEMBL1201862, “PubChem BioAssay data set” (2004):
# Active and inactive are the calls of the source.
# How the values were obtained:
# Escherichia coli = experiment: microbe, parasite or virus in culture
# Cytochrome P450 2D6 = Cytochrome P450 2D6 (Homo sapiens, UniProt P10635);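 note: CYP2D6 member of a cytochrome P450 panel assay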
# [1] = target: T1, Carboxy-terminal domain RNA polymerase II polypeptide A small phosphatase 1 (Homo sapiens, UniProt Q9GZU7); experiment: inhibitors of CTDSP1, concentration-response testing, biochemical assay, absorbance-based, actives from ultra-high-throughput screening (AID 540297); format: functional
# T1 sequence (Q9GZU7 whole entry): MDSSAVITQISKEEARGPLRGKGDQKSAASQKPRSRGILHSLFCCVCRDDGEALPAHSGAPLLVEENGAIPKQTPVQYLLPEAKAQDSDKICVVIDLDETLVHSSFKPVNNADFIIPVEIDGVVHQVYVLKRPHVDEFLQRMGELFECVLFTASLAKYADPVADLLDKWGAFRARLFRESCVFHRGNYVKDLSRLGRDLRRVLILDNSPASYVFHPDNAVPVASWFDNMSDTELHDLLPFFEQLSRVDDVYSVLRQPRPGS
# [2] = target: T2, Microphthalmia-associated transcription factor (Homo sapiens, UniProt O75030); experiment: TRPM1 promoter luciferase signal decrease, dose response, MITF inhibitor project, cell-based, SK-MEL-5, cherry-picked, set 3 (AID 493073); format: functional
# T2 sequence (O75030 whole entry): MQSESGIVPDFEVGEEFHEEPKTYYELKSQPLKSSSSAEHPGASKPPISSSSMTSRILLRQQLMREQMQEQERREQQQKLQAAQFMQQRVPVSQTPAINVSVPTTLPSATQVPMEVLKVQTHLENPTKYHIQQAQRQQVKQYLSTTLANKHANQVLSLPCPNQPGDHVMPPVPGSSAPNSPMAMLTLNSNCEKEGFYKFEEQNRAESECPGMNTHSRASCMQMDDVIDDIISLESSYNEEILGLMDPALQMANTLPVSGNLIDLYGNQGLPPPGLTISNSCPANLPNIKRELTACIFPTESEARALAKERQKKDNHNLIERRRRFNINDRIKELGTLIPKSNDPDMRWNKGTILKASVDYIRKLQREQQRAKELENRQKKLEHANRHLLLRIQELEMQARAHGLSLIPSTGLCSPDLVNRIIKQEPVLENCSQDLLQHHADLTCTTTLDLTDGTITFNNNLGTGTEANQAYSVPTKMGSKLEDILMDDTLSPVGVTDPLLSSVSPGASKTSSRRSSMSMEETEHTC
# Paired box protein Pax-8 = Paired box protein Pax-8 (Homo sapiens, UniProt Q06710); experiment: inhibitors of PAX8-driven TPO luciferase reporter, dose response, RMG-I cells, cherry-pick (AID 687027); format: functional, cell-based;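 note: luciferase reporter driven by Pax8 target thyroperoxidase promoter measured by SteadyGlo luminescence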
# Cytochrome P450 2C19 = Cytochrome P450 2C19 (Homo sapiens, UniProt P33261); experiment: Cytochrome panel assay with activity outcomes. Panel member name: p450-cyp2c19 Compounds with AC50 equal or less than 10 uM are considered active; format: functional
# HeLa = experiment: HeLa cell cytotoxicity, dose response, cytotoxicity control for MITF activator project, CellTiter-Glo luminescence, cherry-pick samples (AID 540259); format: functional, cell-based; settings: Homo sapiens
# H4 = experiment: Luminescence Cell-Based Dose Response HTS to Identify Activators of 5'UTR Stem-Loop Driven Prion Protein mRNA Translation in H4 Neuroglioblastoma Cells. [Related pubchem assays: 1829 (Project Summary), 1814 (Primary HTS)]; format: functional; settings: Homo sapiens
# [3] = Luminescence Cell-Based Dose Response HTS to Identify Activators of Luciferase Translation or Activity in H4 […] Cells. [Related pubchem assays: 1829 (Project Summary), 1814 (Primary HTS)]; format: functional
# [4] = HEp-2 cell cytotoxicity, dose response, cytotoxicity control for RSV inhibitor project, HTS (AID 2410); format: functional; settings: human respiratory syncytial virus
# [5] = NIH-3T3 fibroblast cytotoxicity, dose response, cytotoxicity control, cell-based, fluorescence, Alamar Blue, secondary assay (AID 2327); format: functional;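 note: NIH-3T3 mouse fibroblasts cultured with fluconazole at 8 µg/mL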
# [6] = C. albicans growth with fluconazole, confirmation, fluorescence, retest (AID 2467); format: functional, cell-based
# [7] = target: Dual specificity tyrosine-phosphorylation-regulated kinase 1A (Rattus norvegicus, UniProt Q63470); format: biochemical, Homo sapiens
# [8] = cytotoxicity in HEK-293T cells, dose response, cytotoxicity control for BCR NF-kB inhibitor project, luminescence, B-cell screen hits (AID 489021); format: functional, cell-based;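 note: HEK-293T cells carrying an NF-kB luciferase reporter; cells exposed to compound for about 14 hours before viability readout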
# Cytochrome P450 1A2 = target: T3, Cytochrome P450 1A2 (Homo sapiens, UniProt P05177);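 note: PubChem cytochrome P450 panel assay, CYP1A2 panel member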
# T3 sequence (P05177 whole entry): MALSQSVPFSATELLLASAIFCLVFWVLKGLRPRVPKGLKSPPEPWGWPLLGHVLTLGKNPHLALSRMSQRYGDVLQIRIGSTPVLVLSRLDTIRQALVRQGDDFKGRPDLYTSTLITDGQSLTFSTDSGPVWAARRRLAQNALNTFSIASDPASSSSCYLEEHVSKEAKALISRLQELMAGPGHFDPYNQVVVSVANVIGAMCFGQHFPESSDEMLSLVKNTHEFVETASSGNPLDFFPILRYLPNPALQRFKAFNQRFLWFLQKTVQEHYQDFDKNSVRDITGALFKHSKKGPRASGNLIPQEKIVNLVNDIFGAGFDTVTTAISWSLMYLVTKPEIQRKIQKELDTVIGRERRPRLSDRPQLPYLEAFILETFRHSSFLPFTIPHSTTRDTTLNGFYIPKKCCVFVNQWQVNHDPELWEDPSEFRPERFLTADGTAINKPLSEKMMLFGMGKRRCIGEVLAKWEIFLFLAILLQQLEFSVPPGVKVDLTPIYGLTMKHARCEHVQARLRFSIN
# Cytochrome P450 3A4 = Cytochrome P450 3A4 (Homo sapiens, UniProt P08684);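 note: CYP3A4 tested as one member of a cytochrome P450 panel screen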
# Cytochrome P450 2C9 = Cytochrome P450 2C9 (Homo sapiens, UniProt P11712)
# cells [9] = format: functional, cell-based
# cells [10] = format: functional, cell-based; remark: listed apart in the source
# [11] = target: Induced myeloid leukemia cell differentiation protein Mcl-1 (Homo sapiens, UniProt Q07820); format: functional
# [12] = THP-1 cell cytotoxicity, dose response, cytotoxicity control for Vif-APOBEC3G degradation inhibitor project, THP-1 cells (AID 1117359); format: functional; settings: Human immunodeficiency virus 1, THP-1
# [13] = Luminescence Cell-Based Dose Retest to Confirm Inhibitors of Cancer Stem Cells. [Related pubchem assays (depositor defined):AID2717, AID2721]; format: functional; settings: Homo sapiens
# INS1 = experiment: beta cell apoptosis inhibitors, cytokine rescue, dose response, luminescence, retest (AID 449756); format: functional, cell-based; settings: Rattus norvegicus;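 note: cell death triggered by IL-1 beta plus TNF-alpha plus IFN-gamma mixture; protective hits raise ATP signal compared with cytokine alone wells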
# [14] = target: T4, Replicative DNA helicase DnaB (Mycobacterium tuberculosis, UniProt P9WMR3); experiment: DnaB intein splicing inhibitors, dose response, biochemical, cell-free fluorescence (AID 449749); format: functional
# T4 sequence (P9WMR3 whole entry): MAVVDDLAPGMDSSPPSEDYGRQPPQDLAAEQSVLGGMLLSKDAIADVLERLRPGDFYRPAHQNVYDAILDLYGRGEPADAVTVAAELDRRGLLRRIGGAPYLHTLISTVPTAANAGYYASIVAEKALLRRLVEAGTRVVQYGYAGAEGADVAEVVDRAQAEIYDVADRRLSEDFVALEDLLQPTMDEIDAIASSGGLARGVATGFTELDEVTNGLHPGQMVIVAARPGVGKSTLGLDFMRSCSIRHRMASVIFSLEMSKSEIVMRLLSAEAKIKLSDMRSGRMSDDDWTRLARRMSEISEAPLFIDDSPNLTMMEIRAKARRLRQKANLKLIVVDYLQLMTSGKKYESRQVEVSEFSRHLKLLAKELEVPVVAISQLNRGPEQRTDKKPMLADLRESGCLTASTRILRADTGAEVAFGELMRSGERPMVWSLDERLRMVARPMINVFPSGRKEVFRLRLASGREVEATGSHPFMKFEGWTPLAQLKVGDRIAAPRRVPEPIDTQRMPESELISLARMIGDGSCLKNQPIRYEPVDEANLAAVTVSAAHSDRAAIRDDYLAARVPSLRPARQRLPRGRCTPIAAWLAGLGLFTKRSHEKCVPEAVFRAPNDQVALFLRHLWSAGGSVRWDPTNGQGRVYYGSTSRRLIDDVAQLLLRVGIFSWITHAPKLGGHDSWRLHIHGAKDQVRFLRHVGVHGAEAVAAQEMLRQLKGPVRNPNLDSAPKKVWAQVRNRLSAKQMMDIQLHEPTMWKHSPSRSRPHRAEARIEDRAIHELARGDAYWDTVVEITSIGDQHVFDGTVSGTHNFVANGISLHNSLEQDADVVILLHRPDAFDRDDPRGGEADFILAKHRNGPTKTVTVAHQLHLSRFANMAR
# [15] = growth suppression of beta-catenin-knockout colon cells, dose response, cell-based, HCT116, human colon tumor (AID 1045); format: functional;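 note: HCT116 colon tumor cells with beta catenin knocked out; cells exposed to compound for 60 hours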
# Protein RecA = target: T5, Protein RecA (Mycobacterium tuberculosis, UniProt P9WHJ3); experiment: Fluorescence Cell-Free Homogeneous Dose Retest to Identify Inhibitors of RecA-Intein Splicing Activity. [Related pubchem assays (depositor defined):AID2097, AID2223, AID489010, AID492950]; format: functional
# T5 sequence (P9WHJ3 whole entry): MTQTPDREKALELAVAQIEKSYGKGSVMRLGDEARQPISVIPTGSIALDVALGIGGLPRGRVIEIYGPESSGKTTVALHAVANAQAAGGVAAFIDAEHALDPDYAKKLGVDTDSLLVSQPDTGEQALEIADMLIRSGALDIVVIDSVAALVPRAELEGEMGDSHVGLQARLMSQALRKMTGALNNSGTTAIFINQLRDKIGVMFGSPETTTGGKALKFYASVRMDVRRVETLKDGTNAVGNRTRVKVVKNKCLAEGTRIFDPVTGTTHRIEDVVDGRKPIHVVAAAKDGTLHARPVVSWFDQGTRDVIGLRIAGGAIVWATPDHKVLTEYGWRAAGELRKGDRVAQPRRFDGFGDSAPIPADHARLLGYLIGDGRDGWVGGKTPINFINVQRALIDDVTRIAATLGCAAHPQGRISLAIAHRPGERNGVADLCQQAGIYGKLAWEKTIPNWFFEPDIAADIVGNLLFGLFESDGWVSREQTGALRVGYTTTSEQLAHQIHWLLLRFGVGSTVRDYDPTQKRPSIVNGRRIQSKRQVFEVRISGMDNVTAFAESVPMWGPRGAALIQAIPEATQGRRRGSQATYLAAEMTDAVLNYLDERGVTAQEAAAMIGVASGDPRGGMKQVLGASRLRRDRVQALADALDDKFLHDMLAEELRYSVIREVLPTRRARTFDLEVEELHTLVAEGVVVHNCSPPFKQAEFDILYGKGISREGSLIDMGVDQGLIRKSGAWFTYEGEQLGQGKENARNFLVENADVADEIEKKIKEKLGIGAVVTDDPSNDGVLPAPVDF
# [16] = growth suppression of PTEN-null colon cells, dose response, cell-based, HCT116 PTEN knockout (AID 1047); format: functional;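 note: HCT116 colon tumor cells with PTEN knocked out; cells exposed to compound for 60 hours before readout; potency for loss of cell viability measured by luminescence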
# Chain of Cytochrome P450 2D6 (P10635 whole entry, the tested form may be a part): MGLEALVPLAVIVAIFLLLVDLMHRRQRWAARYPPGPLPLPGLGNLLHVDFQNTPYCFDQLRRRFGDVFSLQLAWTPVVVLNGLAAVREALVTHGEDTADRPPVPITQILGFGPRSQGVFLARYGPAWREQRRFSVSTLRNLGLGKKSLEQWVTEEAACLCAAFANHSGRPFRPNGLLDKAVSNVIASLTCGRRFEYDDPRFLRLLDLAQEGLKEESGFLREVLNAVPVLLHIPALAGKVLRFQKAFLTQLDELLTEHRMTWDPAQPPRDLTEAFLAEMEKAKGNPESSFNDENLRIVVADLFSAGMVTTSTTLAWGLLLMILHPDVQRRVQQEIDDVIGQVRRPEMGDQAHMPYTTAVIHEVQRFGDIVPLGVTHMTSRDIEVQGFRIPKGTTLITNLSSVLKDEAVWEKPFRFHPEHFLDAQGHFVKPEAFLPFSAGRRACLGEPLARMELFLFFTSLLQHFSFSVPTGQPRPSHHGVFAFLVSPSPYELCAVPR
# Chain of Cytochrome P450 2C9 (P11712 whole entry): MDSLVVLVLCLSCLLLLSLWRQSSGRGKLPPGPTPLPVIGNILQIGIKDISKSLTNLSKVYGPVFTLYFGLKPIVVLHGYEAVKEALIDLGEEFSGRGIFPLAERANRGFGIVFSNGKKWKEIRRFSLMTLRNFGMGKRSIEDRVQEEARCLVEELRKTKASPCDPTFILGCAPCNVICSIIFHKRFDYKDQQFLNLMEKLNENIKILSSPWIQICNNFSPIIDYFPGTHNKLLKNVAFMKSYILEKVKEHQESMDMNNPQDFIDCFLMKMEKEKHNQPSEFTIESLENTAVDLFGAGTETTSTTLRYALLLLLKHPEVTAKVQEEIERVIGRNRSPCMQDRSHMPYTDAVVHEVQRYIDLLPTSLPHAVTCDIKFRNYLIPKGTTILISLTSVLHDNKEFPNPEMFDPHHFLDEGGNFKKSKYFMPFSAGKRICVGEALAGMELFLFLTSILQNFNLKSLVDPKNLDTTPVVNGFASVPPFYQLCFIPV
# Chain of Cytochrome P450 2C19 (P33261 whole entry): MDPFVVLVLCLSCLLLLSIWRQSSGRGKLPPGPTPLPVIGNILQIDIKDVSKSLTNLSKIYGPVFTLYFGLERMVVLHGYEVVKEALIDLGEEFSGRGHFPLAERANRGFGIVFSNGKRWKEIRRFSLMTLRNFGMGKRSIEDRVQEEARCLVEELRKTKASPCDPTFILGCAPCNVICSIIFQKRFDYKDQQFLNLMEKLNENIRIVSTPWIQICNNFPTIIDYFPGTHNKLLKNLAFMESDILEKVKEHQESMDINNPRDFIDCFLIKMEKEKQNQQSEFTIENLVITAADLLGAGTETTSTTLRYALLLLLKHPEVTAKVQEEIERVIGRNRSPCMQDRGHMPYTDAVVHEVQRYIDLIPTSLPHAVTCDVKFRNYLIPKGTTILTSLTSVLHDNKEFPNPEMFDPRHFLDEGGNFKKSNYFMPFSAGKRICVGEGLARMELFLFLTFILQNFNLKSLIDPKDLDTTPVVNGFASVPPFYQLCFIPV
# Chain of Cytochrome P450 3A4 (P08684 whole entry): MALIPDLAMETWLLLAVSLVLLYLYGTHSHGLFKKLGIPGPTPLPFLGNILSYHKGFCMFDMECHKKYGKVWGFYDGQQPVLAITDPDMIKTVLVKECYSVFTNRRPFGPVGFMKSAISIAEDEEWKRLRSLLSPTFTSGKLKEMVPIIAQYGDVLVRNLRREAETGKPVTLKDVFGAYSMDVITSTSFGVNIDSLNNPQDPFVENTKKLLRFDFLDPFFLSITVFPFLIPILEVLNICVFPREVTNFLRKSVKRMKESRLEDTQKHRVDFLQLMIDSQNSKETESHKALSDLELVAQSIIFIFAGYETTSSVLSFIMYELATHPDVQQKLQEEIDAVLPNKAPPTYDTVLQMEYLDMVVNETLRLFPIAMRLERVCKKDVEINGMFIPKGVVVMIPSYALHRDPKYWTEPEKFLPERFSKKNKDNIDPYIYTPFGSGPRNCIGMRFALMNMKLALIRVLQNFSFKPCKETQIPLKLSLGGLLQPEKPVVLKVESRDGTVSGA
# Chain of Paired box protein Pax-8 (Q06710 whole entry): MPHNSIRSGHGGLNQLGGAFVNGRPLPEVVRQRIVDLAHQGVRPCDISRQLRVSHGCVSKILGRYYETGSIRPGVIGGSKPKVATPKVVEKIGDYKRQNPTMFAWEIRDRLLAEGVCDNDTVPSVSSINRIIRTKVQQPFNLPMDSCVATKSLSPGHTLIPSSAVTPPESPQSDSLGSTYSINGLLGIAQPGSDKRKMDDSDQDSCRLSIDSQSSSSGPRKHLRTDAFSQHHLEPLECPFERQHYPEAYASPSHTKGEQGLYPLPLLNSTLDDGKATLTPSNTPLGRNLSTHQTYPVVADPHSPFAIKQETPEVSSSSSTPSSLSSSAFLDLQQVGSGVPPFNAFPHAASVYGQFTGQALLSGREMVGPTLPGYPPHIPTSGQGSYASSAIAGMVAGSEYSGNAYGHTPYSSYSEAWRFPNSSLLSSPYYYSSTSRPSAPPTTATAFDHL
# Chain of Induced myeloid leukemia cell differentiation protein Mcl-1 (Q07820 whole entry): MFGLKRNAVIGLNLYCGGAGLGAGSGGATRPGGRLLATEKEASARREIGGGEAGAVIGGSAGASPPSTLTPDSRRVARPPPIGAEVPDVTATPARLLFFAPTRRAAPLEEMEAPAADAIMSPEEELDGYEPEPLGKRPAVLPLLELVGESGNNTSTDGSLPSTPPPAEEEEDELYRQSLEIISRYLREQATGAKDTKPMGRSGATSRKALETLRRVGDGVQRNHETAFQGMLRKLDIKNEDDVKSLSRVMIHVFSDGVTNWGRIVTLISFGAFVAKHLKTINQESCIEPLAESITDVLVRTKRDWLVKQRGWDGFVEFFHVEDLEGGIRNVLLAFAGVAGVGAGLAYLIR
structure (smiles),measurement,setting,value
CCCCSc1nc2c(c(=O)[nH]c(=O)n2C)n1CCc1ccccc1,AC50,Escherichia coli,50.8 µM (active)
CC(=O)COC(=O)CCc1nc2ccccc2nc1O,AC50,Cytochrome P450 2D6,inconclusive
CCOC(=O)C1(C)C(C(=O)OC)=C(c2ccc(OC)cc2)c2ccccc2N1C(=O)OC (stereo not drawn),IC50,[1],29.5 µM (active)
Cc1ccc(NC(=O)c2ccc([N+](=O)[O-])s2)cc1S(=O)(=O)N1CCOCC1,AC50,[2],3.78 µM (active)
same,AC50,Paired box protein Pax-8,3.94 µM (active)
COc1ccc(C(=O)C2=C(O)C(=O)N(CCCC(=O)O)C2c2ccc(OC)cc2)cc1 (stereo not drawn),AC50,Cytochrome P450 2C19,inconclusive
same,AC50,Cytochrome P450 2D6,inconclusive
COc1ccc(-c2nnn(Cc3ccccc3F)n2)cc1,AC50,HeLa,60.2 µM (active)
same,EC50,H4,44.6 µM (inconclusive)
same,EC50,[3],1.75 µM (active)
CN(CCC#N)C(=O)c1cc2c(s1)-c1ccccc1SC2,AC50,HeLa,63.4 µM (active)
same,CC50,[4],28 µM (active)
Nc1nn2c(O)cc(-c3ccccc3)nc2c1N=Nc1ccc(S(N)(=O)=O)cc1,EC50,[5],> 160 µM (inactive)
same,EC50,[6],> 38 µM (not active)
same,AC50,[7],1.3 µM (active)
COc1cc(/C=C(\C#N)c2nn(CCO)c(N)c2C#N)cc(OC)c1OC,AC50,Escherichia coli,29 µM (active)
CC(=O)O[C@H](COc1c2ccoc2cc2oc(=O)ccc12)C(C)(C)O,AC50,[7],3.74 µM (active)
Cc1ccc(-c2cc(C(F)F)n3ncc(C(=O)Nc4ccc(S(=O)(=O)Nc5ccccc5C)cc4)c3n2)cc1,AC50,Escherichia coli,21.5 µM (active)
O=S(=O)(O)c1ccc(/N=N\c2ccccc2)cc1,AC50,Cytochrome P450 2D6,inconclusive
CCOc1ccc(/C=C2\SC(=S)N(CCC(=O)Nc3cccc(C(=O)O)c3)C2=O)cc1,IC50,[8],> 80 µM (inactive)
same,IC50,[1],3.77 µM (active)
Cc1cc2ccccc2nc1SCC(=O)Nc1nc(-c2ccccc2)cs1,AC50,Cytochrome P450 1A2,0.2 µM (inconclusive)
same,AC50,Cytochrome P450 3A4,0.178 µM (inconclusive)
same,AC50,Cytochrome P450 2C9,1.12 µM (inconclusive)
same,AC50,Cytochrome P450 2D6,inconclusive
C[C@@H]1O[C@@H](OC[C@H]2O[C@@H](Oc3c(-c4ccc(O)cc4)oc4cc(O)cc(O)c4c3=O)[C@H](O)[C@@H](O)[C@@H]2O)[C@H](O)[C@H](O)[C@H]1O [NICOTIFLOROSIDE],EC50,cells [9],> 350 µM (not active)
same,EC50,cells [10],> 350 µM (not active)
same,AC50,[7],7.78 µM (active)
COC(=O)CNC(=O)CN1C(=O)N(c2ccccc2)C(N(O)C(=O)Nc2ccccc2)C1(C)C (stereo not drawn),AC50,Cytochrome P450 2C19; read-out: AC50,3.55 µM (inconclusive)
same,AC50,Cytochrome P450 2C9,10 µM (inconclusive)
same,AC50,Cytochrome P450 2D6,inconclusive
CC(=O)c1ccc(NC(=O)CSc2nnc(-c3ccco3)c(-c3ccco3)n2)cc1,IC50,[11],8.94 µM (active)
same,CC50,[12],> 40 µM (active)
same,IC50,[1],3.88 µM (active)
O=C(NCCc1c[nH]c2ccccc12)c1cc(Cl)c2c(c1)OCO2,AC50,HeLa,70.3 µM (active)
CCCCNc1c(-c2ccc(-c3cccc(Cl)c3)cc2)nc2ccccn12,AC50,[13],3.86 µM (active)
same,AC50,HeLa,32.4 µM (active)
same,AC50,INS1,6.04 µM (active)
O=C(CCl)N(c1ccccc1)c1c[nH]c2ccccc12,AC50,[14],8.51 µM (active)
same,EC50,[15],3.3 µM (active)
same,AC50,[2],5.09 µM (active)
same,EC50,Protein RecA,0.361 µM (active)
same,EC50,[16],3.78 µM (active)
